Test results from PubChem BioAssay AID602235 (The Scripps Research Institute Molecular Screening Center, 2012).
Activity calls are given as the source filed them. No rule for the calls is given here.

Molecular target: Nuclear receptor coactivator 1 (Homo sapiens) (UniProt Q15788)
Assay: SRC1 (NCOA1) coactivator inhibitors, dose response, cell-based, luciferase reporter, luminescence (AID 602235);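 also: cells transfected with pGL4.31 reporter plus pBIND-SRC1 vector; potency is for inhibitors that lower SRC1 reporter luminescence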

Nuclear receptor coactivator 1 (Homo sapiens), sequence (Q15788 whole entry, looked up): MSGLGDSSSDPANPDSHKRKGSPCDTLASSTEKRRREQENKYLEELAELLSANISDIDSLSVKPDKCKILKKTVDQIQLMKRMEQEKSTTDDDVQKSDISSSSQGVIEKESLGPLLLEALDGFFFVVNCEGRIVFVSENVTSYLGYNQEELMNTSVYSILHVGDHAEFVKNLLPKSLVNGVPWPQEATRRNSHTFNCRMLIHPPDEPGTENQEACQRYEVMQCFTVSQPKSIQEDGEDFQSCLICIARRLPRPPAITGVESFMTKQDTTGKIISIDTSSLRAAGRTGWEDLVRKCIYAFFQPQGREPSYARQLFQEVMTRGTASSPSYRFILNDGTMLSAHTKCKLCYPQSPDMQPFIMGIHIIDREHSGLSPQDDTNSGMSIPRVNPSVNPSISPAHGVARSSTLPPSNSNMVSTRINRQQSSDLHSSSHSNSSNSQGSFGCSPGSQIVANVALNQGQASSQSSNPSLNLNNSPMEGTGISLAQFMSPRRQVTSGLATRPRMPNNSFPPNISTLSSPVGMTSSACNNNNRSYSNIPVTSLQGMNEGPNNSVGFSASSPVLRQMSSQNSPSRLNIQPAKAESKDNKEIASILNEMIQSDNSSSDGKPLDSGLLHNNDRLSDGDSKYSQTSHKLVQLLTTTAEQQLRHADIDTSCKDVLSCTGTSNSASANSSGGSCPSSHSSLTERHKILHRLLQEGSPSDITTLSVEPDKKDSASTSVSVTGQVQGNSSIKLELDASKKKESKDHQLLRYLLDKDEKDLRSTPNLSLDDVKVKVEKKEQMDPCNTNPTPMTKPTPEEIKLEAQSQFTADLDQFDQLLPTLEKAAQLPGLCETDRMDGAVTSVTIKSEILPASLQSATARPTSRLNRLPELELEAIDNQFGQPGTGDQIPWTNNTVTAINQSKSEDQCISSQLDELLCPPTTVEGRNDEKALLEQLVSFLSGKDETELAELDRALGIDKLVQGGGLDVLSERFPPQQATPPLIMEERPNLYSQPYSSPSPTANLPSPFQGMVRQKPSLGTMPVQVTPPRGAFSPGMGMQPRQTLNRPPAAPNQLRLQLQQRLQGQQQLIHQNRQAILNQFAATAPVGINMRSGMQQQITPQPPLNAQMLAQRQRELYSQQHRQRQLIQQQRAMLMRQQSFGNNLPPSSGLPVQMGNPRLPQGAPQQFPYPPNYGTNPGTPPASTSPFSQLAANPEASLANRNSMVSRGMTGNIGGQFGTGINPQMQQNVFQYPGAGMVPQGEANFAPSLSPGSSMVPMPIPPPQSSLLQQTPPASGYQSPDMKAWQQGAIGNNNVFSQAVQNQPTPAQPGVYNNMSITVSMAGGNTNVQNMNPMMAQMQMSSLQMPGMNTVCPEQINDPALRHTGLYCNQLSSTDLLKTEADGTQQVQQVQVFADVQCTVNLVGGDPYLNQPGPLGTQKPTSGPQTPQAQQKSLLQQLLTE

Row | SMILES | IC50
1 | COc1ccc(Cc2nnc(SCc3ccc([N+](=O)[O-])cc3)o2)cc1 | inactive
2 | O=C(N/N=C(\c1ccccc1)c1ccccn1)c1ccccc1Cl | inactive
3 | CCn1ccnc1CN(C)Cc1cn[nH]c1-c1ccc(F)cc1F | inactive
4 | Cc1sc2ncnc(N3CCC(C(=O)Nc4cc(S(C)(=O)=O)ccc4Cl)CC3)c2c1C | inactive
5 | O=C(Nc1nc(-c2ccccn2)cs1)c1cccc(S(=O)(=O)N2CCOCC2)c1 | inactive
6 | Cc1ccc(S(=O)(=O)NC(CC(C)C)C(=O)NCC(c2ccco2)N2CCCCC2)cc1 (centres undefined) | > 35.9 µM (inactive)
7 | Cc1ccc(C(=O)Nc2sc(C)c(-c3ccccc3)c2C(N)=O)cc1[N+](=O)[O-] | > 35.9 µM (inactive)
8 | OCCN1CCN(C(=S)c2ccc(-c3ccccc3)cc2)CC1 | > 35.9 µM (inactive)
9 | CC(C)n1c(-c2cccnc2)nc2cnccc21 | inactive
10 | CCC(C)(C)n1nnnc1CN1CCC(n2c(C)nc3cc(C(F)(F)F)ccc32)CC1 | > 35.9 µM (inactive)
11 | C=CCc1ccccc1OCC(=O)N/N=C/c1ccc(OC(C)=O)cc1OC(C)=O | inactive
12 | CCC(=O)Oc1c(C(=O)CC)cc2c(C)cc(=O)oc2c1C | > 35.8 µM (inactive)
13 | CCN(C(=O)c1cccc(S(=O)(=O)N(C)C)c1)C12CC3CC(CC(C3)C1)C2 | > 35.9 µM (inactive)
14 | CCCCCCCC[n+]1c(C)n(-c2ccccc2)c2ccc(NC(C)=O)cc21 | > 35.9 µM (inactive)
15 | Cn1nc(C(F)(F)F)c(C#N)c1N1CCN(c2ccccc2)CC1 | 7.05 µM
16 | O=C(CSc1nc(-c2cccs2)cc(C(F)(F)F)n1)Nc1cc(OCC(F)(F)C(F)F)cc([N+](=O)[O-])c1 | > 35.9 µM (inactive)
17 | C=CCn1c(Oc2ccccc2F)nc2c1c(=O)n(C)c(=O)n2C | inactive
18 | O=C(Nc1c(-c2ccccc2)[nH][nH]c1=O)c1cccc(C(F)(F)F)c1 | > 35.8 µM (inactive)
19 | COc1cccc(C2=CC(=O)CC(C)(C)C2)c1 | inactive
20 | CC(C)(C)c1cc(C(=O)N/N=C/c2ccc(O)cc2)n(-c2ccccc2)n1 | > 35.9 µM (inactive)
21 | COc1ccc(-c2cc(=O)oc3c(C)c(O)c(CN(C)C)cc23)cc1 | inactive
22 | CNc1cccnc1C=NNC(N)=S | 3.45 µM

Row | SMILES | IC50
23 | CCN(C(=O)c1cc(S(=O)(=O)N2CCCCC2)c[nH]1)c1ccc(OC)cc1 | inactive
24 | CCC(=O)c1ccc(Oc2nc3c(c(=O)n(C)c(=O)n3C)n2CC)cc1 | 7.62 µM
25 | O=C(O)c1ccccc1-c1c2cc(I)c(=O)c(I)c-2oc2c(I)c(O)c(I)cc12 | > 35.9 µM (inactive)
26 | COc1ccccc1N(C(=O)CCl)c1cn(C(C)=O)c2ccccc12 | > 35.9 µM (inactive)
27 | Cc1cc(=O)[nH]c(Nc2cccc(Br)c2)n1 | inactive
28 | N#Cc1c2ccc(O)cc2n2ccccc12 | > 35.9 µM (inactive)
29 | CCn1c(Oc2cccc(Br)c2)nc2c1c(=O)n(C)c(=O)n2C | inactive
30 | COc1ccc(Nc2ncnc3ccc(C)cc23)cc1 | 3.97 µM
31 | O=C(O)CN1C(=O)/C(=C\c2ccccc2OCc2ccc(Cl)cc2Cl)SC1=S | inactive
32 | O=C(Nc1cccnc1)c1ccc(C(=O)Nc2cccnc2)cc1 | > 35.9 µM (inactive)
33 | Nc1nc(CCl)nc(Nc2cccc3ccccc23)n1 | inactive
34 | COc1ccc2ncn(-c3ccccc3)c2c1 | 8.16 µM
35 | Cc1ccc(OCC(=O)c2cc(C)n(-c3ccccc3)c2C)c([N+](=O)[O-])n1 | inactive
36 | Cc1ccccc1C(=O)/C(C#N)=N/Nc1c(C)n(C)n(-c2ccccc2)c1=O | inactive
37 | CC[C@@]1(O)C(=O)OCc2c1cc1n(c2=O)Cc2cc3c(NC(=O)CN)cccc3nc2-1 | > 35.9 µM (inactive)
38 | CCN(c1ccccc1)S(=O)(=O)c1cc(C(=O)Nc2ccc(Br)cc2)ccc1F | > 12 µM (inactive)
39 | O=C(COC(=O)c1ccc[nH]c1=O)Nc1ccc(N2CCCCC2)cc1 | > 35.9 µM (inactive)
40 | Cc1ccc(C)c(NC(=O)c2ccccc2NS(=O)(=O)c2cc([N+](=O)[O-])ccc2C)c1 | 4.81 µM
41 | COc1ccc2c(=O)cc(-c3ccncc3)oc2c1OC | inactive
42 | CCOC(=O)CC(=O)CSc1nccc(-c2cccnc2)n1 | inactive
43 | COc1cccc2c1C(=N)c1c(O)c3c(c(O)c1C2=O)CC(O)(C(C)=O)CC3OC1CC(N)C(O)C(C)O1 (centres undefined) | > 35.9 µM (inactive)
44 | NC(=S)NN=Cc1nccc2c(N)cccc12 | inactive
